Data on 2 molecules can be found in paper PMC6155812, “Synthesis, Anti-Breast Cancer Activity, and Molecular Docking Study of a New Group of Acetylenic Quinolinesulfonamide Derivatives” (Molecules : A Journal of Synthetic Chemistry and Natural …, 2017).

The structures appear in SMILES notation.

For data set [1], the system named is MCF-7 (human adenocarcinoma) cells. As to the kind of experiment: WST-1 antiproliferative assay, MCF-7. It counts as cell-based. The conditions noted are these: Homo sapiens, MCF7, WST-1 assay, 3–4 days, 0.5–250 µM; neg = negative in concentration used; read-out: IC50 ± SD, MCF-7. The text has this: (§1) Encouraged by promising results in the field of antiproliferative derivatives of acetylenic sulfanylquinoline derivatives, in this study the decision was made to combine the biological potentials of sulfamoylquinoline and alkynyl moieties, with the intention of obtaining compounds with better activity against breast cancer cell lines. The SAR analyses of the acetylenic sufamoylquinoline were based on the cell growth inhibition potencies on the MCF-7 (human adenocarcinoma), MDA-MB-231 and T-47D (human ductal carcinoma) cells using the WST-1 assay. The results from the in vitro cytotoxicity assay are expressed as the concentration of compound (µM) that inhibited the proliferation of 50% of the tumor cells, compared to the control untreated cells (IC50). Cisplatin was used as a positive control to induce cell death.
(§2) The cell lines (MCF-7, MDA-MB-231, and nontumor HFF-1) were cultured and kept in Dubecco’s modified Eagle medium (DMEM) supplemented with 10% fetal bovine serum (FBS) 1.000 IU·mL^−1 penicillin and 10 mg·m^−1·mL^−1 streptomycin in atmosphere with 5% CO2 at 37 °C. The cells were seeded using a series of standard 96-well plates (Corning). Test compounds were prepared at a concentration of 5.0 mM dimethyl sulfoxide (DMSO). Freshly prepared dilutions of the test compounds in a culture medium at a concentration of 0.5–250 µM were added to the microtiter plates and the cells were grown for 3–4 days. Solvent control (DMSO) was included to check its potential inhibitory activity at the concentration used. After incubation, the cell growth rate was evaluated by performing a WST-1 assay. The amount of formazan produced was measured at 450 nm. Expermentally determined absorbance values were transformed into the cell percentage of growth as described previously. Each test point was performed in triplicate for each tested compound cocentration. The results were statistically analyzed using PraphPad Prism 6 software (Graphpad Software, Inc., La Jolla, CA, USA).
Background: Tetrazolium dyes change colour on reduction, which living cells bring about.

Data set [2] has as its system T47D (human ductal carcinoma) cells. The data set can be described thus: WST-1 antiproliferative assay, T47D. It counts as cell-based. Conditions: Homo sapiens, T47D, WST-1 assay, 3–4 days, 0.5–250 µM; neg = negative in concentration used; read-out: IC50 ± SD, T47D.
Source text: as §1, §2

For another data set, the system named is MDA-MB-231 cells. As to the kind of experiment: WST-1 antiproliferative assay, MDA-MB-231. The data set is classed as cell-based, human. Conditions: Homo sapiens, MDA-MB-231, WST-1 assay, 3–4 days, 0.5–250 µM; neg = negative in concentration used; read-out: IC50 ± SD, MDA-MB-231.
Source text: as §1, §2

The subject of the next data set is HFF-1 normal fibroblasts. The data set can be described thus: WST-1 cytotoxicity assay, normal fibroblasts HFF-1. The data set is classed as cell-based, human. Conditions: Homo sapiens, HFF-1, WST-1 assay, 3–4 days, 0.5–250 µM, neg = negative in concentration used, read-out: IC50 ± SD, HFF-1.
Source text: as §1, §2

In general, IC50 refers to the concentration at which inhibition is half-maximal. By melting point is commonly meant the temperature, or range, at which the solid turns liquid. The molecule `C#CCN(C)S(=O)(=O)c1ccc2ncc(S(=O)(=O)N(C)CC#C)cc2c1` [compound 12, 3,6-Di[N-methyl-N-(3-propynyl)sulfamoyl]quinoline] showed a melting point of 138 to 139 °C. For the same molecule, in data set [1], the half-maximal inhibitory concentration (IC50) worked out at 3.14 ± 0.34 µM. The half-maximal inhibitory concentration (IC50) in data set [2] worked out at 2.5 ± 0.09 µM. In addition, in the data set on MDA-MB-231 cells, the IC50 worked out at 2.86 ± 0.34 µM. In the data set on HFF-1 normal fibroblasts, the IC50 worked out at 375.5 ± 3 µM.

For `C#CCN(C)S(=O)(=O)c1cnc2ccc(Cl)cc2c1` [compound 14, 6-Chloro-3-[N-methyl-N-(3-propynyl)sulfamoyl]quinoline], the melting point lay within 146 to 147 °C. Moreover, the half-inhibitory concentration (IC50) in data set [1] stood at 118 ± 2.04 µM. For the same molecule, the IC50 in data set [2] was determined as 11.7 ± 1.11 µM. Also, the IC50 in the data set on MDA-MB-231 cells was 26.8 ± 1.45 µM. In the data set with HFF-1 normal fibroblasts, the IC50 was 71.8 ± 1.6 µM.
